From ChEMBL document CHEMBL1201862, “PubChem BioAssay data set” (2004) come the findings set out here.

Among the test systems are BT-549; CAKI-1; HL-60; Hs-578T; KM12; LOX IMVI; MCF7; NCI/ADR-RES; OVCAR-4; OVCAR-5; OVCAR-8; PC-3; RXF 393; SK-OV-3; T47D; U-251; UACC-62; HOP-62; SR; TK-10.
Common to all, as to assay: NCI-60 cell line screen, 48 h

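Dose response: 5 concentrations. Exposure: 48 h. Format: 96-well plates. Endpoint: linear interpolation; highest concentration if not reached. GI50 = concentration required for 50% inhibition of growth.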 Active and inactive are the calls of the source. No stated cut-off is given here; in the data, active = GI50 up to about 1.1 µM and inactive = higher. A value given as a limit tells only on which side of the number the result lay.

With `NC1=NN(c2ccccc2)C2(c3ccncc3C(=O)O)C1C(N)=NN2c1ccccc1` (configuration not stated), the GI50 in the experiment on BT-549, in the experiment on CAKI-1, in the experiment with HL-60, in the experiment with Hs-578T, in the experiment on KM12 and with LOX IMVI was > 100 µM (inactive) throughout. Moreover, the GI50 with MCF7, in the experiment on NCI/ADR-RES, with OVCAR-4, with OVCAR-5, with OVCAR-8 and in the experiment on PC-3 was > 100 µM (inactive) each time. Further, the GI50 in the experiment on RXF 393, in the experiment on SK-OV-3, in the experiment on T47D, in the experiment on U-251 and in the experiment with UACC-62 was > 100 µM (inactive) each time.
For the compound `COC1/C=C\C=C(/C)C(=O)Nc2cc3nc4ccc(Br)cc4oc-3c(c2=O)CC(C)CC(OC)C(O)C(C)/C=C(\C)C1OC(N)=O` (configuration not stated), the GI50 was 0.00429 µM (active) in the experiment on BT-549; 0.292 µM (active) in the experiment on CAKI-1; 0.0128 µM (active) in the experiment with HL-60; 4.1 µM (inactive) with HOP-62; 0.0628 µM (active) with Hs-578T; 2.26 µM (inactive) in the experiment on KM12. For the same compound, the GI50 with LOX IMVI is 0.0565 µM (active); with MCF7, 0.000752 µM (active); with OVCAR-4, 0.469 µM (active); in the experiment with OVCAR-5 it was 1.64 µM (inactive); with OVCAR-8, 0.09 µM (active); in the experiment on PC-3, 0.931 µM (active). For the same compound, the GI50 in the experiment on RXF 393 was < 0.0112 µM (active); with SK-OV-3, 0.129 µM (active); in the experiment on SR, 0.0116 µM (active); in the experiment with T47D it was 0.00277 µM (active); in the experiment with TK-10, 0.0424 µM (active); in the experiment on U-251, 4.46 µM (inactive). Also, the GI50 in the experiment with UACC-62 is 0.0391 µM (active).
In the case of `O=C(Oc1c(Cl)cc(C2(c3cc(Cl)c(OC(=O)c4ccccc4)c(Cl)c3)CCCCC2)cc1Cl)c1ccccc1`, the GI50 was 14.7 µM (inactive) in the experiment on BT-549; 5.01 µM (inactive) in the experiment with CAKI-1; 3.32 µM (inactive) with HL-60; 12.4 µM (inactive) with HOP-62; 14.8 µM (inactive) in the experiment with Hs-578T; 5.08 µM (inactive) in the experiment on KM12. The GI50 is 14.2 µM (inactive) in the experiment on LOX IMVI; 11.1 µM (inactive) with MCF7; 11.6 µM (inactive) in the experiment on NCI/ADR-RES; 10.9 µM (inactive) in the experiment with OVCAR-4; 14 µM (inactive) in the experiment on OVCAR-5; 15.9 µM (inactive) with OVCAR-8. Also, the GI50 was 9.42 µM (inactive) in the experiment on PC-3; 11.5 µM (inactive) in the experiment with RXF 393; 15.5 µM (inactive) with SK-OV-3; 11 µM (inactive) in the experiment on T47D; 16.7 µM (inactive) in the experiment on TK-10; 13.8 µM (inactive) in the experiment on U-251. Moreover, in the experiment with UACC-62, the GI50 was 10.5 µM (inactive).
As for `COc1cc(/C=C2\N=C(c3ccccc3)N(c3nc4ccc(Sc5ccccc5)cc4[nH]3)C2=O)ccc1O`, the GI50 in the experiment on BT-549 is 20 µM (inactive); in the experiment on CAKI-1, 23.9 µM (inactive); in the experiment on HL-60 it was 11.2 µM (inactive); in the experiment on HOP-62, 42.7 µM (inactive); in the experiment with Hs-578T it was 32.4 µM (inactive); in the experiment on KM12, 15.2 µM (inactive). For the same compound, the GI50 in the experiment with LOX IMVI was 25.5 µM (inactive); with MCF7 it was 17.5 µM (inactive); in the experiment on NCI/ADR-RES, 18.7 µM (inactive); in the experiment with OVCAR-4 it was 30.1 µM (inactive); in the experiment with OVCAR-5, 26.1 µM (inactive); in the experiment on OVCAR-8, 27.6 µM (inactive). For the same compound, the GI50 was 24.4 µM (inactive) in the experiment on PC-3; 28.5 µM (inactive) in the experiment on RXF 393; 30.4 µM (inactive) in the experiment on SK-OV-3; 27 µM (inactive) in the experiment with T47D; 20.7 µM (inactive) in the experiment with TK-10; 19.4 µM (inactive) in the experiment on U-251. In addition, the GI50 in the experiment on UACC-62 is 15.2 µM (inactive).
Take `C[N+]12C=CC=C1C(N1CCCC1)c1scc(-c3ccc(F)cc3)c12` (configuration not stated): the GI50 with BT-549 is 4.89 µM (inactive); in the experiment with CAKI-1, > 100 µM (inactive); in the experiment with HOP-62, 63.7 µM (inactive); with Hs-578T, 21.5 µM (inactive); in the experiment with KM12, 23.8 µM (inactive); in the experiment with LOX IMVI it was 40.8 µM (inactive). Besides, the GI50 is 22 µM (inactive) in the experiment with MCF7; > 100 µM (inactive) in the experiment on NCI/ADR-RES; 32.4 µM (inactive) with OVCAR-5; 40.4 µM (inactive) in the experiment with OVCAR-8; 27.1 µM (inactive) in the experiment on PC-3; 24.5 µM (inactive) with RXF 393. In addition, the GI50 was > 100 µM (inactive) with SK-OV-3; 11 µM (inactive) with SR; 5.93 µM (inactive) in the experiment with T47D; 6.71 µM (inactive) in the experiment on U-251; 35.4 µM (inactive) in the experiment with UACC-62.
For `CCOC(=O)c1nc2ccccc2nc1Oc1ccc(C(=O)OC)cc1`, the GI50 with BT-549, in the experiment on CAKI-1, with HOP-62, with Hs-578T, in the experiment on KM12 and in the experiment on LOX IMVI was > 100 µM (inactive) throughout. In addition, the GI50 in the experiment on MCF7, with NCI/ADR-RES, in the experiment with OVCAR-4, in the experiment with OVCAR-5, with OVCAR-8 and in the experiment on PC-3 was > 100 µM (inactive) each time. The GI50 in the experiment on RXF 393, in the experiment on SK-OV-3, in the experiment with T47D, with TK-10, in the experiment on U-251 and in the experiment on UACC-62 was > 100 µM (inactive) throughout.
On to `COC(=O)[C@@]12OC[C@]34[C@H]([C@@H](O)[C@@H]1O)[C@@]1(C)CC(=O)C(O)=C(C)[C@@H]1C[C@H]3OC(=O)[C@H](OC(=O)/C=C(\C)C(C)C)[C@@H]24` [BRUCEANTIN], for which the GI50 with BT-549 is 0.02 µM (active); with CAKI-1, 0.022 µM (active); in the experiment on HOP-62, 0.02 µM (active); in the experiment on Hs-578T, 0.00553 µM (active); in the experiment with KM12, 0.02 µM (active); in the experiment with LOX IMVI, 0.02 µM (active). Also, the GI50 with MCF7 was 0.02 µM (active); in the experiment with NCI/ADR-RES, 0.337 µM (active); in the experiment on OVCAR-4 it was 0.0211 µM (active); with OVCAR-5, 0.0265 µM (active); with OVCAR-8, 0.02 µM (active); in the experiment with PC-3 it was 0.016 µM (active). For the same compound, the GI50 with RXF 393 is 0.0201 µM (active); with SK-OV-3, 0.02 µM (active); in the experiment with SR it was 0.00512 µM (active); in the experiment on T47D it was 0.0153 µM (active); with TK-10, 0.021 µM (active); with U-251, 0.0242 µM (active). Moreover, in the experiment on UACC-62, the GI50 is 0.02 µM (active).
Consider `C=C1C(=O)OC2/C=C(\CO)C3OC3C3OC3(C)CC(OC(=O)/C(=C/C)CO)C12` (configuration not stated), for which the GI50 was 45.4 µM (inactive) in the experiment with BT-549; 28.3 µM (inactive) with CAKI-1; > 100 µM (inactive) in the experiment with HOP-62; > 100 µM (inactive) with Hs-578T; > 100 µM (inactive) with KM12; 48.6 µM (inactive) in the experiment with LOX IMVI. In addition, the GI50 was 34.8 µM (inactive) in the experiment with MCF7; > 100 µM (inactive) with NCI/ADR-RES; 45.4 µM (inactive) with OVCAR-4; 50.7 µM (inactive) in the experiment with OVCAR-5; 86.3 µM (inactive) with OVCAR-8; > 100 µM (inactive) in the experiment with PC-3. Moreover, the GI50 in the experiment on RXF 393 was 47.1 µM (inactive); in the experiment on SK-OV-3, > 100 µM (inactive); in the experiment with SR, 28.2 µM (inactive); with T47D, 92.9 µM (inactive); in the experiment with TK-10, > 100 µM (inactive); with U-251, 55.2 µM (inactive). Further, the GI50 in the experiment with UACC-62 is 57.3 µM (inactive).
In the case of `O=C(O)COc1ccc(C(=O)/C(SS/C(C(=O)c2ccc(OCC(=O)O)c(Cl)c2Cl)=C2\C=C(c3ccc(F)cc3)SS2)=C2/C=C(c3ccc(F)cc3)SS2)c(Cl)c1Cl`, the GI50 in the experiment on BT-549 was 27.7 µM (inactive); with CAKI-1, 33.5 µM (inactive); with HL-60, 2.37 µM (inactive); in the experiment on HOP-62, 33.9 µM (inactive); with Hs-578T, 3.83 µM (inactive); with KM12, 15.1 µM (inactive). Further, the GI50 is 3.12 µM (inactive) in the experiment on LOX IMVI; 36.8 µM (inactive) with MCF7; 13.4 µM (inactive) with OVCAR-4; 32.8 µM (inactive) with OVCAR-5; 14 µM (inactive) with OVCAR-8; 41.7 µM (inactive) in the experiment on SK-OV-3. Further, the GI50 was 3.76 µM (inactive) in the experiment on SR; 3.13 µM (inactive) in the experiment with T47D; 37.8 µM (inactive) with TK-10; 5.75 µM (inactive) in the experiment with U-251; 8.24 µM (inactive) in the experiment with UACC-62.
With `O=C(Nc1ncc([N+](=O)[O-])s1)c1ccccc1O` [TIZOXANIDE], the GI50 with BT-549 was 19.1 µM (inactive); with CAKI-1 it was 29.6 µM (inactive); in the experiment with HOP-62 it was 20 µM (inactive); in the experiment with Hs-578T, 6.58 µM (inactive); with KM12 it was 15.3 µM (inactive); in the experiment on LOX IMVI it was 24.6 µM (inactive). The GI50 in the experiment with MCF7 is 13.7 µM (inactive); in the experiment with NCI/ADR-RES it was 13.6 µM (inactive); in the experiment with OVCAR-4, 38.3 µM (inactive); in the experiment on OVCAR-5, 32.9 µM (inactive); in the experiment with OVCAR-8 it was 17.9 µM (inactive); in the experiment with PC-3, 11.9 µM (inactive). In addition, the GI50 in the experiment with RXF 393 is 3.39 µM (inactive); in the experiment with SK-OV-3, 12.2 µM (inactive); with T47D, 28.3 µM (inactive); in the experiment with TK-10, 21.4 µM (inactive); in the experiment with U-251, 14.9 µM (inactive); in the experiment on UACC-62 it was 4.66 µM (inactive).
